# Laboratory results: patent US20260199368A1, “[…] SYSTEM CONTAINING REMIMAZOLAM” (LTS LOHMANN THERAPIE-SYSTEME AG, priority 2022, published 2026)
# Assay: In vivo studies using Goettingen minipigs: RMZ and CNS7054 plasma pharmacokinetics and bioavailability
# Settings: IV, 10 mg
# Method: In order to assess the pharmacokinetic profile and effect of buccally administered oromucosal delivery systems containing remimazolam besylate, in vivo experiments using Goettingen minipigs (female, about 3 months old, body weight was 7 kg at the start of the study) were conducted. Three minipigs were used. A single oromucosal delivery system of Examples 1c (foam) and 1d (hotmelt), prepared as described above, with a nominal amount of 20 mg remimazolam (formulated as 27.2 mg nominal remimazolam besylate), was used per animal (with the exception of animal No 3 in Phase 1, where only half of an oromucosal delivery system of each type was placed in each side). The oromucosal delivery system foam was cut into two pieces to fit on the buccal mucosa.
# The dose was given by buccal administration (oromucosal delivery system; hotmelt and foam) or IV administration (10 mg remimazolam formulated as remimazolam besylate according to the treatment schedule shown in table 9. No less than 48 hours were allowed between dosing occasions to allow for proper wash-out. The treatment with the oromucosal delivery systems was performed as follows: • 1. The animals were anaesthetized by mask with isoflurane to obtain sufficient depth of anesthesia to facilitate the placement of the oromucosal delivery system without stressing the animals. The length and concentration of isoflurane anesthesia was similar in all animals. • 2. The oromucosal delivery system was placed on the buccal mucosa. A small amount of saline was applied to the mucosa to facilitate the dissolution process on a single occasion in Phase 1. • 3. The mouth of the minipigs was closed for 1-2 minutes and then opened to check for completely dissolved oromucosal delivery system. If the oromucosal delivery system was not dissolved further checks were performed with intervals of 1-2 minutes, as required. • 4. The isoflurane treatment was stopped as soon as the oromucosal delivery system was dissolved.
# In order to evaluate the bioavailability, the animals also received a single intravenous (IV) dose. The IV dose volume was administered as a bolus over a period of approximately 1 minute.
# The RMZ IV dose formulation was prepared in glass containers. To prepare said formulation of nominal 5 mg/mL (stock solution), a drug product vial (50 mg of RZM powder) was reconstituted with 10 mL of 0.9% w/v sodium chloride solution. The reconstituted solutions of RMZ were clear and colorless to slightly yellow. The reconstituted RMZ drug product was used within 24 hours.
# After each dosing in phase 2-4, blood samples were taken from all animals. Blood samples were collected at 8 time points following application of the oromucosal delivery systems. Samples were collected at the following time points: pre-treatment, and 2, 5, 10, 20, 40, 60 and 90 minutes post-treatment.
# RMZ concentrations and CNS7054 concentrations in minipig plasma were determined using a validated liquid-liquid extraction followed by LC-MS/MS. All samples, collected before treatment start, were measured to be below the limit of quantification (0.100 ng/mL).
# Individual plasma concentrations are listed in Table 13 and are graphically depicted in FIGS. 3a to 5b. Additionally, basic pharmacokinetic parameters such as maximal plasma concentration (cmax), time to reaching it (tmax) and exposure defined as Area Under the Curve (AUC0-t) are summarized in Table 13 for each individual animal for both RMZ and CNS7054 and following IV administration or administration of either of the two oromucosal delivery system formulations.
# For the evaluation of the bioavailability (BA), dose-normalized cmax (cmax/D) and dose-normalized AUC (AUC0-t/D) were determined for the two oromucosal delivery system formulations for RMZ and CNS7054.
smiles,measurement,setting,value
"COC(=O)CC[C@@H]1N=C(c2ccccn2)c2cc(Br)ccc2-n2c(C)cnc21.O=S(=O)(O)c1ccccc1 [RMZ, remimazolam besylate]",CNS7054 plasma concentration,"Animal No 1, 1 min",108 ng/mL
same,Remimazolam plasma concentration,"Animal No 1, 1 min",1032 ng/mL
same,CNS7054 plasma concentration,"Animal No 1, 5 min",224 ng/mL
same,Remimazolam plasma concentration,"Animal No 1, 5 min",767 ng/mL
same,CNS7054 plasma concentration,"Animal No 1, 10 min",283 ng/mL
same,Remimazolam plasma concentration,"Animal No 1, 10 min",389.5 ng/mL
same,CNS7054 plasma concentration,"Animal No 1, 20 min",423 ng/mL
same,Remimazolam plasma concentration,"Animal No 1, 20 min",285.5 ng/mL
same,CNS7054 plasma concentration,"Animal No 1, 40 min",406 ng/mL
same,Remimazolam plasma concentration,"Animal No 1, 40 min",149.3 ng/mL
same,CNS7054 plasma concentration,"Animal No 1, 60 min",329 ng/mL
same,Remimazolam plasma concentration,"Animal No 1, 60 min",76.1 ng/mL
same,CNS7054 plasma concentration,"Animal No 1, 90 min",302 ng/mL
same,Remimazolam plasma concentration,"Animal No 1, 90 min",40.6 ng/mL
same,CNS7054 AUC0-t,Animal No 1,30508.5 ng·min/mL
same,CNS7054 cmax,Animal No 1,423 ng/mL
same,CNS7054 tmax,Animal No 1,20 min
same,Remimazolam AUC0-t,Animal No 1,18349.25 ng·min/mL
same,Remimazolam cmax,Animal No 1,1032 ng/mL
same,Remimazolam tmax,Animal No 1,2 min
same,CNS7054 plasma concentration,"Animal No 2, 1 min",539 ng/mL
same,Remimazolam plasma concentration,"Animal No 2, 1 min",1244 ng/mL
same,CNS7054 plasma concentration,"Animal No 2, 5 min",707 ng/mL
same,Remimazolam plasma concentration,"Animal No 2, 5 min",432 ng/mL
same,CNS7054 plasma concentration,"Animal No 2, 10 min",851 ng/mL
same,Remimazolam plasma concentration,"Animal No 2, 10 min",469 ng/mL
same,CNS7054 plasma concentration,"Animal No 2, 20 min",783 ng/mL
same,Remimazolam plasma concentration,"Animal No 2, 20 min",208.8 ng/mL
same,CNS7054 plasma concentration,"Animal No 2, 40 min",508 ng/mL
same,Remimazolam plasma concentration,"Animal No 2, 40 min",52.6 ng/mL
same,CNS7054 plasma concentration,"Animal No 2, 60 min",267 ng/mL
same,CNS7054 plasma concentration,"Animal No 2, 90 min",170 ng/mL
same,CNS7054 AUC0-t,Animal No 2,41688 ng·min/mL
same,CNS7054 cmax,Animal No 2,851 ng/mL
same,CNS7054 tmax,Animal No 2,10 min
same,Remimazolam AUC0-t,Animal No 2,12539.5 ng·min/mL
same,Remimazolam cmax,Animal No 2,1244 ng/mL
same,Remimazolam tmax,Animal No 2,2 min
same,CNS7054 plasma concentration,"Animal No 3, 1 min",387 ng/mL
same,Remimazolam plasma concentration,"Animal No 3, 1 min",654 ng/mL
same,CNS7054 plasma concentration,"Animal No 3, 5 min",815 ng/mL
same,Remimazolam plasma concentration,"Animal No 3, 5 min",353.9 ng/mL
same,CNS7054 plasma concentration,"Animal No 3, 10 min",798 ng/mL
same,Remimazolam plasma concentration,"Animal No 3, 10 min",201 ng/mL
same,CNS7054 plasma concentration,"Animal No 3, 20 min",770 ng/mL
same,Remimazolam plasma concentration,"Animal No 3, 20 min",124.3 ng/mL
same,CNS7054 plasma concentration,"Animal No 3, 40 min",625 ng/mL
same,Remimazolam plasma concentration,"Animal No 3, 40 min",41.2 ng/mL
same,CNS7054 plasma concentration,"Animal No 3, 60 min",423 ng/mL
same,Remimazolam plasma concentration,"Animal No 3, 60 min",52.2 ng/mL
same,CNS7054 plasma concentration,"Animal No 3, 90 min",123 ng/mL
same,CNS7054 AUC0-t,Animal No 3,46682.5 ng·min/mL
same,CNS7054 cmax,Animal No 3,815 ng/mL
same,CNS7054 tmax,Animal No 3,5 min
same,Remimazolam AUC0-t,Animal No 3,8551.6 ng·min/mL
same,Remimazolam cmax,Animal No 3,654 ng/mL
same,Remimazolam tmax,Animal No 3,2 min
